Reference: publication PMC10539361, “Allosteric modulation of the fish taste receptor type 1 (T1R) family by the extracellular chloride ion” (Scientific Reports, 2023)
Blank lines part the entries; values can stand above or below the compound they belong to.

Experiments:
[1] = molecular target: T1, zfT1R2a/zfT1R3 (Danio rerio, UniProt A0A8M1N8F9+Q2MHK9); test: Effect of anions, cations and osmotic pressure on cellular responses, cells in 10 mM Cl- buffer, zfT1R2a/zfT1R3; format: cell-based, zebrafish; conditions: for response to fixed concentration of L-Pro on coapplication: coapplied with 160 µM L-Pro, final [Cl-]o up to 60 mM
T1 sequence (A0A8M1N8F9 26-825): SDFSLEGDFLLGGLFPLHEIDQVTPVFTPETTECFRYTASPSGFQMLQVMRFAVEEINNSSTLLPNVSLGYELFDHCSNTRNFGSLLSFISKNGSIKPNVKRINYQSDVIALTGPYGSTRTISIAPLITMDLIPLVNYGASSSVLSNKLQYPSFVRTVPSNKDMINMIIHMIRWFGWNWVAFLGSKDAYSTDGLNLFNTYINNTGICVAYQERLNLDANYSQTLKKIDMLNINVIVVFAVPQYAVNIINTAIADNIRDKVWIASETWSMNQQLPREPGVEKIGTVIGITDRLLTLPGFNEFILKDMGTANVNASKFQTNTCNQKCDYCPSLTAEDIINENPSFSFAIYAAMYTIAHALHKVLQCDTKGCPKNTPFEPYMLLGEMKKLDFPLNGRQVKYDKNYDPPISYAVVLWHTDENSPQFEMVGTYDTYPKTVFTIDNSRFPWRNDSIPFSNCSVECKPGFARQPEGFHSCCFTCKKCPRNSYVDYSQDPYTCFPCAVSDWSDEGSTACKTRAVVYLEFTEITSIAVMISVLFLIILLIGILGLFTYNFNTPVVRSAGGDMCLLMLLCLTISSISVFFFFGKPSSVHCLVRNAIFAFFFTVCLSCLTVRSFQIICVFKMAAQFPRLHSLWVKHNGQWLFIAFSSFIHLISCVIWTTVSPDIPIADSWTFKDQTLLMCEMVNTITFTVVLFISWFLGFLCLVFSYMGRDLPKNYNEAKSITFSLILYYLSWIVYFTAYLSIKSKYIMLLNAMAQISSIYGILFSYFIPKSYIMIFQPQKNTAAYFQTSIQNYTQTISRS
T1 sequence (Q2MHK9 25-850): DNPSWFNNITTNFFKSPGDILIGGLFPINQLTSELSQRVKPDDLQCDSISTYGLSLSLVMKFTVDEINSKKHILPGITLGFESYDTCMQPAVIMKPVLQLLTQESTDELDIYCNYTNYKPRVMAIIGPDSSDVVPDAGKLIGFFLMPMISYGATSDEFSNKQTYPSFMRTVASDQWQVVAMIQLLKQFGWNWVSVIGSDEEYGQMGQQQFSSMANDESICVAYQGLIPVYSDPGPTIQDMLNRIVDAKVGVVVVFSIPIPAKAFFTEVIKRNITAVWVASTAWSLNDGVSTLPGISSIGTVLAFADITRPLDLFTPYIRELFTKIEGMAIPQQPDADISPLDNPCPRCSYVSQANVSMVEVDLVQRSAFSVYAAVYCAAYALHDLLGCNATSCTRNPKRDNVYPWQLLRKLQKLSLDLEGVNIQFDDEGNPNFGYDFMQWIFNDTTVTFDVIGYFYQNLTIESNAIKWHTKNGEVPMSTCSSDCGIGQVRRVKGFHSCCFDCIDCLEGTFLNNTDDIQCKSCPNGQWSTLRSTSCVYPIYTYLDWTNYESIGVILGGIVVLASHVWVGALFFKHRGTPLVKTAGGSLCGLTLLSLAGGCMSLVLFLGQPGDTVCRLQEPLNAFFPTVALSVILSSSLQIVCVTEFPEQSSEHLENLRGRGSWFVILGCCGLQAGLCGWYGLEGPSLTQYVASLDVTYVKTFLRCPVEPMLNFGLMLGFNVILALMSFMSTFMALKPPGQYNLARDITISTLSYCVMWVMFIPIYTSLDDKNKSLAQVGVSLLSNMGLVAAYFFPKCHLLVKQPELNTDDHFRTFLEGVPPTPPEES
Procedure: Cells were seeded in 96-well plates coated with ε-poly-L-lysine at approximately 70,000 cells per well. […] Fluorescence changes were monitored at 2 s intervals, as described above. […] Three independent experiments were conducted for each receptor, and representative results are shown as the mean ± SEM (n = 3 replicates). Statistical tests were conducted using KyPlot version 6.0 (KyensLab Inc., Tokyo, Japan). Statistical significance was set at p < 0.05.

[2] = molecular target: T2, zfT1R2b/zfT1R3 (Danio rerio, UniProt A0A8M1NDZ5+Q2MHK9); test: Ca2+ mobilization dose-response assay, stable cells expressing zfT1R2b/zfT1R3 with G16gust44
T2 sequence (A0A8M1NDZ5 18-823): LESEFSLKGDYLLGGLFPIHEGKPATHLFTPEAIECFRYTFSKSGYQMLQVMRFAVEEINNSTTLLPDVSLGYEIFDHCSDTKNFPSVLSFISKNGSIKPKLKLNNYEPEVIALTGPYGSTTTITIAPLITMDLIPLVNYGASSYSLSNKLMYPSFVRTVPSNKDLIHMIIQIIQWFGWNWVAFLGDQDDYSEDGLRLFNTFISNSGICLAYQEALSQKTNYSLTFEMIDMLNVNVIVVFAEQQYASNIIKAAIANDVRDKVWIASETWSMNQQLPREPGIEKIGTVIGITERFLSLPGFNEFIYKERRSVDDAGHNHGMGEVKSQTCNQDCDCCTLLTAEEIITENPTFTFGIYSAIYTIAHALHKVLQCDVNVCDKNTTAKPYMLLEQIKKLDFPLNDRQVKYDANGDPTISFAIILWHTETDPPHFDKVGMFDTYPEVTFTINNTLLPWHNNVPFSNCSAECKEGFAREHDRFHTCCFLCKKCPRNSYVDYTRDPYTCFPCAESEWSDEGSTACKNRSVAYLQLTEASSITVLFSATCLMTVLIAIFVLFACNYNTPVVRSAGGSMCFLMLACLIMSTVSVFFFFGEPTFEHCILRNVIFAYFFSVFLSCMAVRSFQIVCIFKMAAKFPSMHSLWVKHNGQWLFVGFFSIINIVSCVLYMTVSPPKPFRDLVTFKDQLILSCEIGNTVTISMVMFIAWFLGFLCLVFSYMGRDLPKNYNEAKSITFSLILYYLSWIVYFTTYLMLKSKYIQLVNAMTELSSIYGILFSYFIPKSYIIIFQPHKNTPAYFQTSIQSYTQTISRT
T2 sequence (Q2MHK9 25-850): T1 sequence (Q2MHK9 25-850)
Procedure: (§1) The buffers with lower Cl^− were prepared by progressively replacing NaCl, KCl, CaCl2 and MgCl2 in the buffer with gluconate equivalents[20]. The pH was adjusted to 7.4 with NaOH. Ligands were diluted with the assay buffers at the desired concentrations.
(§2) Measurements of the responses of the cells by cell-based assay based on the intracellular Ca^2+ mobilization were carried out as described previously with some modifications[20],[34],[46],[47]. […] The cells were seeded in 96-well plates (clear-bottomed CellBIND surface plate, Corning, Glendale, AZ, USA) coated with ε-poly-L-lysine (Cosmo Bio, Tokyo, Japan) at approximately 70,000 cells per well. After 20 h, the medium was removed and replaced with high Cl^− buffer. After 3 h 30 min incubation at 27 °C, cells were loaded with 5 µM calcium-indicator dye Fluo-8 AM (AAT Bioquest, Sunnyvale, CA, USA) diluted in high Cl^− buffer. After incubation for 30 min at 27 °C, the cells were washed with buffers containing appropriate concentrations of Cl^−. The cellular assay was initiated after 3–5 min of resting and was completed within 5 min. The measurements were made using FlexStation 3 (Molecular Devices, Sunnyvale, CA, USA) at 27 °C. Fluorescence changes (i.e., excitation at 485 nm and emission at 525 nm with a cutoff at 515 nm) were monitored at 2 s intervals. A 100-µL aliquot of assay buffer supplemented with 2 × ligands was added at 20 s, and scanning was continued for an additional 40 s. The response of each well was determined as ∆RFU (delta relative fluorescent units), which was calculated as (maximum fluorescent value)—(minimum fluorescent value). […] Such normalized data from more than three independent experiments are reported as the mean ± standard error of the mean (SEM). Dose‒response fitting curves were calculated by Prism 9 (GraphPad Software, San Diego, CA) using nonlinear regression (log(agonist) vs. response—variable slope), based on the integrated data from the several independent experiments.

[3] = molecular target: T1, zfT1R2a/zfT1R3; test: Ca2+ mobilization dose-response assay, stable cells expressing zfT1R2a/zfT1R3 with G16gust44
Procedure: as §1, §2

[4] = EC50, [Cl-]o=10 mM, unit inferred

- response to fixed concentration of L-Pro on coapplication [1]: did not enhance
SMILES: O=C([O-])[C@H](O)[C@@H](O)[C@H](O)[C@H](O)CO.[Na+] [Na-gluconate, sodium gluconate]

SMILES: [Cl-].[Na+] [NaCl]
- response to fixed concentration of L-Pro on coapplication [1]: enhanced
- cellular response to the salt alone ([1]; without agonist): did not elicit
- [Cl-]o range in which a decrease in sensitivity was observed ([2]; agonist L-Ala, buffers with 10-141.4 mM Cl-): 40 to 141.4 mM
- [Cl-]o at which sensitivity is clearly reduced ([3]; agonist L-Pro, buffers with 10-141.4 mM Cl-): below 80 mM

SMILES: C[C@H](N)C(=O)O [L-Ala, L-alanine]
- EC50 in 10 mM Cl- buffer relative to high Cl- buffer ([2]; 10 mM vs 141.4 mM Cl- buffer): approximately half
- EC50 [2, 4]: 1.29 mM
- EC50 in 10 mM Cl- buffer relative to high Cl- buffer ([3]; 10 mM vs 141.4 mM Cl- buffer): not influenced
- EC50 [3, 4]: 132 µM
